Legend:
histamine = assay: Antagonistic action towards histamine: inhibition of histamine-induced bronchospasm in anesthetized guinea pigs (Konzett-Rössler); assay type: in vivo, guinea pig; details: Cavia porcellus, iv, anesthetized guinea pigs, dose reducing induced spasm to one half; read-out: Inhibitory action towards histamine (ED50)
Protocol: (§1) 1. Antagonistic action towards the allergy mediators (on anesthetized guinea pigs)
(§2) The test substances were administered intravenously in aqueous solution injected in a volume of 1 ml/kg.

bradykinin = assay: Antagonistic action towards bradykinin: inhibition of bradykinin-induced bronchospasm in anesthetized guinea pigs (Konzett-Rössler); assay type: in vivo, guinea pig; details: Cavia porcellus, iv, anesthetized guinea pigs, dose reducing induced spasm to one half; read-out: Inhibitory action towards bradykinin (ED50)
Protocol: as §1, §2

[1] = Acute toxicity, mortality within 7 days after single i.p. administration to NMRI mice; details: in vivo, ip, mouse i.p.
Protocol: The LD50 values were determined by the standard method of the mortality occurring within 7 days after a single intraperitoneal (i.p.) administration to NMRI mice (NMRI=Naval Medical Research Institute).

mast cells = assay: Passive cutaneous anaphylaxis (PCA) in the rat, inhibition of mediator release (protective effect on mast cells); assay type: in vivo; details: Mast cell
Description: (a) Passive cutaneous anaphylaxis (PCA) in the rat (PCA test) Passive cutaneous anaphylaxis is an IgE-mediated allergy of the immediate type (type I). In this model, antibodies bound to mast cells and basophilic granulocytes react with an intravenously administered antigen with release of excessive amount of the allergy mediators. The histamine which is released during this can be visualized by simultaneous application of Evans blue to the shaven flanks of the rats. Photometric evaluation of the color intensity was used to determine, by means of the percentage inhibition of mediator release compared with untreated control animals, the protective effect on mast cells of the compound according to the invention after oral administration.

[2] = tested on: rat peritoneal mast cells; assay: Histamine release from isolated rat mast cells induced by calcium ionophore A 23 187; assay type: cell-based; details: Mast cell, 0.25 h, 15 min incubation, A 23 187 10^-6 g/ml, read-out: Inhibitory action in the Ca ionophore test IC50
Protocol: (b) Histamine release from isolated rat mast celss induced by calcium ionophore A 23 187 […] […] For this purpose, 10^4 cells were suspended in Clicks/RPMI (50:50, vol.; supplied by Serva, Heidelberg) tissue culture medium, incubated with the test substance for 15 minutes, and then treated with calcium ionophore A 23 187 at a concentration of 10^-6 g/ml. The released histamine was determined by high-pressure liquid chromatography (HPLC). The measure used for the inhibitory action was the IC50 which represents the molar concentration (mol/l) at which the induced histamine release was decreased to one half that of cells which had not been pretreated with a product. In this context, IC50 values above 10^-5 mol/l are regarded as therapeutically irrelevant.

[3] = tested on: asthma induced by histamine; assay: Inhibition by inhalation of allergic asthma induced by histamine in conscious guinea pigs; assay type: in vivo, guinea pig; details: 0.3% strength aerosol
[4] = tested on: platelet activating factor (PAF); assay: Antagonism of PAF-induced bronchospasm in anesthetized rats; assay type: in vivo, rat; details: Rattus norvegicus, Platelet; intravenous, anesthetized rats
Protocol: (§3) The compounds of the formula I and their salts additionally show a pronounced inhibitory action on platelet activating factor (PAF) and the leukotrienes, which are likewise released as spasmogenic mediators from the mast cells during the course of the immediate anaphylactic reaction. It was possible to antagonize the bronchospasm induced in anesthetized rats by administration of PAF by, for example, intravenous administration of the compound of Example 3 with a ED50 of 1-3 mg/kg. The said products of the state of the art, such as oxatomide, ketotiphen and terfenadine, have no action in this test. The contractions induced by calcium ionophore A 23 187 in isolated strips of lung and the isolated trachea of guinea pigs were inhibited by, for example, the compound of Example 3 with an IC50 of 0.1-0.3 μg/ml. Since calcium ionophore A 23 187 stimulates 5-lipoxygenase and thus promotes the formation of spasmogenic leukotrienes, a possible interpretation of the result of this experiment is that the compounds according to the invention are potent leukotriene inhibitors.

[5] = tested on: isolated strips of lung and the isolated trachea of guinea pigs; assay: Inhibition of contractions induced by calcium ionophore A 23 187 in isolated strips of lung and isolated trachea of guinea pigs; details: guinea pig
Protocol: as §3

leukotriene D4 = assay: Inhibition of leukotriene D4-induced spasm in isolated guinea pig trachea; details: leukotriene D4 10 pg/ml
[6] = tested on: airway obstruction induced by histamine aerosol; assay: Plethysmographic investigation on conscious guinea pigs with airway obstruction induced by inhalation of histamine aerosol; assay type: in vivo, guinea pig; details: oral, 0.3% strength histamine aerosol
[7] = Normal weight gain of rats in a subchronic 14-day experiment; assay type: in vivo, rat; details: high oral doses
Description: Finally, the compound of Example 3 had no effect, even at high oral doses, on the normal weight gain of rats in a subchronic 14-day experiment. It is evident from this that the compounds of the formula I have no appetite-stimulating action in contrast to many other antihistamines.

## Cc1cc(NCCN2CCN(C(c3ccccc3)c3ccccc3)CC2)c([N+](=O)[O-])c(C)n1.Cl.Cl.Cl [Example 3, 2,6-dimethyl-3-nitro-4-[(2-{4-diphenylmethyl-1-piperazinyl}ethyl)amino]pyridine trihydrochloride]
histamine
  ED50: 0.3 mg/kg
bradykinin
  ED50: 0.15 mg/kg
[1]
  LD50 at 168 h: 300 to 600 mg/kg
Mast cells; oral dose 12.5 mg/kg
  inhibition in vivo at 12.5 mg/kg: 26%
Mast cells; oral dose 25 mg/kg
  inhibition in vivo at 25 mg/kg: 61%
Mast cells; oral dose 50 mg/kg
  inhibition in vivo at 50 mg/kg: 85%
[2]
  IC50: 10 nM
[3]
  suppression of experimentally induced asthma attacks: substantial suppression
[4]
  ED50: 1 to 3 mg/kg
[5]
  IC50, contractions induced by calcium ionophore A 23 187: 0.1 to 0.3 µg/mL
Leukotriene D4
  concentration inhibiting leukotriene D4-induced spasm by 50%: 3 to 6 µg/mL
[6]; Cavia porcellus
  ED50: 3.15 mg/kg
[6]
  time after administration to maximum effect: 30 min
[7]
  effect on normal weight gain: no effect

Source: patent US4792554A, “Pyridine compounds, pharaceutical compositions, their use in allergy therapy” (priority 1985, dated 1988)
